In patent US4711898A, “4-quinolone derivatives having anti-inflammatory, anti-allergic, antitussive, expectorant and antithrombotic activity” (Nippon Shinyaku Co., Ltd., priority 1982, dated 1987) one finds inhibition in vivo and inhibition data, which are given here for 35 compounds.

The test system of one experiment is carrageenin edema. The experiment in a line: Carrageenin edema at the hind foot of rats. The experiment is classed as in vivo, SD-strain rats. The following applies: Rattus norvegicus, po, 3 h, read-out: % Inhibition (carrageenin edema). The method, then:
The anti-inflammatory action of the compounds of the present invention were evaluated by measuring the inhibition against carrageenin edema as set forth below. Carrageenin edema at the hind foot of rats: Experimental method. SD-strain rats of body weights of around 150 grams were used, each group consisting of five rats. A solution (0.1 ml) of 0.5% carrageenin dissolved in physiological saline water was subcutaneously injected into the right hind foot pat of the rats and, one hour prior to the injection of carrageenin, 200 mg/kg of test compound was given per os. Foot volumes of the rats before the carrageenin treatment and those of three hours after the treatment were measured and the differences were compared with those of the control group to adopt as a target of the effect of the compounds.

The subject of experiment [1] is SRS-A (slow reacting substance of anaphylaxis) contraction of ileum. As to the kind of experiment: Anti-SRS-A action using ileus of guinea pigs. The experiment is classed as cell-based, Hartley strain male guinea pigs. The note with it: Cavia porcellus, 5 min, 1/1000 mM; guinea pig ileum; SRS-A 20 units; compound five minutes before; read-out: 1/1000 mM SRS-A Inhibition Ratio %. The method, then: (§1) The compounds of the present invention have been evaluated for their anti-allergenic action by passive cutaneous anaphylatic assay (PCA) in rats and by measuring the anti-SRS-A action using ileus of guinea pigs.
Anti-SRS-A action (An anti-acton against slow reacting substance of anaphylaxis).
Hartley strain male guinea pigs (300 to 350 grams body weight) are killed and 1.0 to 1.5 cm of ileum is immeidiately excised from ileocecal parts and is suspended in 10 ml of Tyrode solution (95% 02 -5% CO2 saturation) containing 10^-7 g/ml of atropine and 10^-6 g/ml of pyrilamine. SRS-A (20 units) (the amount of SRS-A showing the same contradiction as 5 ng of histamine is defined as 1 unit) prepared by using sensitized guinea pig lung is given to cause contraction there. Then antagonistic action of test compounds treated five minutes ago against the contraction is measured and recorded via isotonic transducer. [formula] in which A' is a height of contraction of SRS-A+test compound and A is that of SRS-A.

Experiment [2] relates to passive cutaneous anaphylaxis (DNP-As homocytotropic antiserum). As to the kind of experiment: passive cutaneous anaphylatic assay (PCA) in rats. The following applies: Rattus norvegicus, po, 1 h, 10 mg/kg orally, one hour before antigen, read-out: PCA Inhibition Ratio %. Format: in vivo, Wistar strain rats. The method, then: as §1
(i) Antiserum abundant in homocytotropic antibody is prepared by the same method as Tada and Okumura did (cf. Journal of Immunology, vol. 106, page 1002, 1971). Thus, 1 mg (calculated as an amount of protein) of DNP-As (2,4-dinitrophenylcoupled ascaris extract) prepared by methods of Strejan and Campbell (Journal of Immunology, vol. 98, p. 893, 1967) and of Eisen (Journal of Amer. Chem. Soc., vol. 75, p 4593, 1953) and 1×10^10pertussis vaccine are administered to each paw of Wistar strain rats (180 to 200 grams body weights) by dividing the dose by four. Five days later, 0.5 mg of DNP-As is administered into muscle of back. Eight days later from the initial immunization, blood is taken from discending aorta under anesthetizing with ether, the resulting serum is stored at -80° and is melted before use.
(ii) Effect of tested compounds is investigated as follows:
Anti-serum obtained by th method (i) is diluted with physiological saline solution double by double successively and 0.05 ml of each diluted solution is administered into the back of Wistar strain rats (140 to 160 grams body weight) intradermally. After 72 hours, a solution of 2 mg (calculated as protein) of DNP-As and 2.5 mg of Evans Blue dissolved in 1 ml of physiological saline solution is administered intraveously at a dose of 5 ml/kg. After 30 minutes from the antigen solution administration, the animals are killed and the diameters of blue spots which appeared at the place where antiserum was administered were measured. The PCA test is conducted by the same method as already described using a diluted solutions of antiserum which always show 10 mm or more of spot diameters and the effect of the test compounds is judged. Thus antiserum diluted solutions are administered into two places in the back. Test compounds are administered orally at the dose of 10 mg/kg one hour before administration of the antigen solution. From the skin of reacted parts of killed animals, leaked or emitted dyestuff is extracted and the amount of the dyestuff is measured. The inhibition ratio is calculated by the following expression: [formula] in which A' is an amount of dyestuff in the group treated with the test compounds and A is that in the control group.

Where [3] appears, read: 200 mg/kg per os, one hour before carrageenin, foot volume three hours after.

Molecules are shown by their SMILES. Where two headings read alike, the source gives them in different places.

As for `CC(=O)Oc1ccccc1C(=O)O` [Acetylsalicylic Acid, reference compound], the inhibition in vivo at 200 mg/kg in the experiment on carrageenin edema is 31.6%.
`COC(=O)c1ccc2c(c1)C(=O)CC(c1ccccc1)=N2` [Example 1, Methyl 2-phenyl-4-quinolone-6-carboxylate]: the inhibition at 1 µM in experiment [1] came to 77%. For the same compound, the inhibition in vivo at 10 mg/kg in experiment [2] was determined as 25.4%. Also, the inhibition in vivo at 200 mg/kg in the experiment with carrageenin edema (setting [3]) amounted to 34%.
With `CCOC(=O)c1ccc2c(c1)C(=O)CC(c1ccccc1)=N2` [Example 4, Ethyl 2-phenyl-4-quinolone-6-carboxylate], in experiment [1], the inhibition at 1 µM came out at 27.5%. Besides, in experiment [2], the inhibition in vivo at 10 mg/kg stood at 25.7%. The inhibition in vivo at 200 mg/kg in the experiment with carrageenin edema (setting [3]) came out at 14.2%.
For `O=C(O)c1ccc2[nH]c(-c3ccccc3Cl)cc(=O)c2c1` [Example 22], in experiment [1], the inhibition at 1 µM was 26.4%. In experiment [2], the inhibition in vivo at 10 mg/kg was found to be 35.8%. Further, the inhibition in vivo at 200 mg/kg with carrageenin edema (setting [3]) turned out to be 14.8%.
As to `O=C(O)c1ccc2[nH]c(-c3ccc(Cl)c(Cl)c3)cc(=O)c2c1` [Example 38], the inhibition at 1 µM in experiment [1] came out at 20.5%. Further, the inhibition in vivo at 10 mg/kg in experiment [2] is 20.4%. In addition, the inhibition in vivo at 200 mg/kg with carrageenin edema (setting [3]) is 12.8%.
Consider `COC(=O)c1ccc2[nH]c(-c3cc(Cl)ccc3Cl)cc(=O)c2c1` [Example 39], for which the inhibition at 1 µM in experiment [1] came to 66%. Also, the inhibition in vivo at 10 mg/kg in experiment [2] came to 24.8%. Besides, the inhibition in vivo at 200 mg/kg with carrageenin edema (setting [3]) worked out at 30%.
For `COC(=O)c1ccc2[nH]c(-c3ccccc3C)cc(=O)c2c1` [Example 41] the same measures were 29.1%, 29.5% and 18.9%.
For `COC(=O)c1ccc2[nH]c(-c3ccc(OC)cc3OC)cc(=O)c2c1` [Example 64] the same measures were 48.2%, 17.7% and 10.1%.
In the case of `COC(=O)c1ccc2[nH]c(-c3ccncc3)cc(=O)c2c1` [Example 70], the inhibition at 1 µM in experiment [1] was determined as 21.4%. Further, in experiment [2], the inhibition in vivo at 10 mg/kg is 22.3%. Also, the inhibition in vivo at 200 mg/kg in the experiment with carrageenin edema (setting [3]) came out at 17.1%.
As to `COC(=O)c1ccc2[nH]c(-c3ccco3)cc(=O)c2c1` [Example 76], in experiment [1], the inhibition at 1 µM worked out at 25.6%. Besides, the inhibition in vivo at 10 mg/kg in experiment [2] is 21.3%. The inhibition in vivo at 200 mg/kg in the experiment with carrageenin edema (setting [3]) is 14.5%.
For the compound `CCOC(=O)c1cccc2c(=O)cc(-c3cccc(Cl)c3)[nH]c12` [Example 86], the inhibition at 1 µM in experiment [1] is 62.5%. Besides, the inhibition in vivo at 10 mg/kg in experiment [2] stood at 20.1%. Besides, the inhibition in vivo at 200 mg/kg with carrageenin edema (setting [3]) stood at 29.5%.
With `CCOC(=O)c1cccc2c(=O)cc(-c3ccc(OC)c(OC)c3)[nH]c12` [Example 98], in experiment [1], the inhibition at 1 µM is 20.4%. For the same compound, the inhibition in vivo at 10 mg/kg in experiment [2] stood at 16.4%. Also, in the experiment on carrageenin edema (setting [3]), the inhibition in vivo at 200 mg/kg turned out to be 16.1%.
In the case of `COc1ccc(-c2cc(=O)c3cccc(C(=O)O)c3[nH]2)cc1OC` [Example 99], the inhibition at 1 µM in experiment [1] was 21.7%. Also, the inhibition in vivo at 10 mg/kg in experiment [2] stood at 13.2%. For the same compound, in the experiment on carrageenin edema (setting [3]), the inhibition in vivo at 200 mg/kg was 36.8%.
The like results for `CCOC(=O)c1cccc2c(=O)cc(-c3ccccc3C)[nH]c12` [Example 104] were, in that order, 19.8%, 10.4% and 53.7%.
`CCOC(=O)c1cccc2c(=O)cc(-c3ccc(C(C)C)cc3)[nH]c12` [Example 106]: the inhibition at 1 µM in experiment [1] is 44%. The inhibition in vivo at 10 mg/kg in experiment [2] was found to be 33.4%. In addition, the inhibition in vivo at 200 mg/kg with carrageenin edema (setting [3]) came to 50.9%.
For `CCOC(=O)c1cccc2c(=O)cc(-c3ccc(OC)cc3OC)[nH]c12` [Example 108] the same measures were 95%, 14% and 51%.
As to `O=C1CC(c2ccccc2Cl)=Nc2c1cccc2C(=O)OCCO` [Example 109, Beta-Hydroxyethyl 2-(2-chlorophenyl)-4-quinolone-8-carboxylate], the inhibition at 1 µM in experiment [1] amounted to 100%. Moreover, the inhibition in vivo at 10 mg/kg in experiment [2] was found to be 29.2%. Besides, the inhibition in vivo at 200 mg/kg with carrageenin edema (setting [3]) amounted to 30.7%.
For `O=C(OCCCCCO)c1cccc2c(=O)cc(-c3ccccc3Cl)[nH]c12` [Example 116], the inhibition at 1 µM in experiment [1] was 23.7%. Further, in experiment [2], the inhibition in vivo at 10 mg/kg turned out to be 15%.
`O=C(OCCCCCCO)c1cccc2c(=O)cc(-c3ccccc3Cl)[nH]c12` [Example 117]: in experiment [1], the inhibition at 1 µM came to 8.7%. In experiment [2], the inhibition in vivo at 10 mg/kg stood at 50%.
As for `O=C(OCCOc1ccccc1)c1cccc2c(=O)cc(-c3ccccc3Cl)[nH]c12` [Example 119], the inhibition at 1 µM in experiment [1] is 73.4%. Further, in experiment [2], the inhibition in vivo at 10 mg/kg was 47%.
As to `N#CCOC(=O)c1cccc2c(=O)cc(-c3ccccc3Cl)[nH]c12` [Example 121], in experiment [1], the inhibition at 1 µM came out at 3.4%. Besides, the inhibition in vivo at 10 mg/kg in experiment [2] is 54.4%.
For `CC(=O)COC(=O)c1cccc2c(=O)cc(-c3ccccc3Cl)[nH]c12` [Example 122] the same measures were 20.4% and 14.7%.
The like results for `CCOC(=O)COC(=O)c1cccc2c(=O)cc(-c3ccccc3Cl)[nH]c12` [Example 123] were, in that order, 17.4% and 16%.
`CCOC(=O)CCCOC(=O)c1cccc2c(=O)cc(-c3ccccc3Cl)[nH]c12` [Example 124]: the inhibition in vivo at 200 mg/kg with carrageenin edema (setting [3]) worked out at 14.5%.
With `O=C(OCC(O)CO)c1cccc2c(=O)cc(-c3ccccc3Cl)[nH]c12` (stereo not drawn) [Example 126], the inhibition at 1 µM in experiment [1] is 19.2%. Besides, the inhibition in vivo at 10 mg/kg in experiment [2] turned out to be 15.3%.
With `CC(C)COCCOC(=O)c1cccc2c(=O)cc(-c3ccccc3Cl)[nH]c12` [Example 127], the inhibition at 1 µM in experiment [1] came out at 25.4%. Also, the inhibition in vivo at 10 mg/kg in experiment [2] was determined as 13.3%.
For `O=C(OCCOCCO)c1cccc2c(=O)cc(-c3ccccc3Cl)[nH]c12` [Example 128] the same measures were 25% and 10.7%.
With `CCOCCOCCOC(=O)c1cccc2c(=O)cc(-c3ccccc3Cl)[nH]c12` [Example 129], in experiment [1], the inhibition at 1 µM was found to be 10.2%. For the same compound, in experiment [2], the inhibition in vivo at 10 mg/kg amounted to 5.4%.
Take `O=C(OCCO)c1cccc2c(=O)cc(-c3cccc(Cl)c3)[nH]c12` [Example 132]: in experiment [1], the inhibition at 1 µM was 55.5%. In addition, the inhibition in vivo at 10 mg/kg in experiment [2] amounted to 18.6%.
As to `Cc1ccccc1-c1cc(=O)c2cccc(C(=O)OCCO)c2[nH]1` [Example 134], in experiment [1], the inhibition at 1 µM was determined as 5.2%. In experiment [2], the inhibition in vivo at 10 mg/kg amounted to 10.8%.
`Cc1ccc(-c2cc(=O)c3cccc(C(=O)OCCO)c3[nH]2)cc1` [Example 135]: in experiment [1], the inhibition at 1 µM was determined as 27.3%. For the same compound, in experiment [2], the inhibition in vivo at 10 mg/kg is 35%.
Consider `Cc1ccc(-c2cc(=O)c3cccc(C(=O)OCCO)c3[nH]2)cc1C` [Example 137], for which the inhibition at 1 µM in experiment [1] is 10.8%. Also, in experiment [2], the inhibition in vivo at 10 mg/kg is 20%.
With `COc1ccc(-c2cc(=O)c3cccc(C(=O)OCCO)c3[nH]2)cc1` [Example 138], in experiment [1], the inhibition at 1 µM was 25.4%. In experiment [2], the inhibition in vivo at 10 mg/kg came to 12.7%.
As to `COc1ccc(-c2cc(=O)c3cccc(C(=O)OCCO)c3[nH]2)c(OC)c1` [Example 139], the inhibition at 1 µM in experiment [1] turned out to be 63.3%. In experiment [2], the inhibition in vivo at 10 mg/kg was 18.4%.
As to `COc1ccc(-c2cc(=O)c3cccc(C(=O)OCCO)c3[nH]2)cc1OC` [Example 140], the inhibition at 1 µM in experiment [1] turned out to be 18.3%. Moreover, in experiment [2], the inhibition in vivo at 10 mg/kg was 19.4%.
